In ChEMBL document CHEMBL3507680, “University of Dundee, Gates Library screen for HepG2 cell viability”:

Assay: Human HepG2 cell viability assay in 384 well format
Type: toxicity, cell-based
Parameters: dose 125 nL, time 70.5 hour; concentration not given beside the values
Conditions: HepG2 cells, read-out: Inhibition

SMILES	cytotoxicity at 70.5 h [%]
NC(=O)c1ccc(-c2nc3c(c(=O)[nH]2)CCNC3)cc1	-2.1
Cc1noc(C)c1CN1C(=O)[C@H]2CC[C@@H]1CN(Cc1cscn1)C2	-6.64
O=C(NCc1cc2n(n1)CCCN(Cc1ccc(Cl)s1)C2)C1CCC1	-10.1
CC(C)c1cc(C2CCCN2C(=O)CN2C(=O)OC(C)(C)C2=O)no1 (stereo not given)	-9.43
c1ccc(CCCN2CCCN(c3ncnc4[nH]ccc34)CC2)cc1	-15.3
O=S(=O)(NCc1ccccc1)N1CCCN(c2ccncc2)CC1	28.7
CCC(C)Oc1ccc(CNCCc2c[nH]cn2)cc1Cl (stereo not given)	24.1
Cc1nn(C)c2nc(N(CCOc3ccccc3)CC3CCCO3)sc12 (stereo not given)	21
O=C(CCc1ccco1)N1CCc2[nH]nc(COc3ccccc3)c2C1	51.5
CCc1ncc(C(=O)NCC2CCN(Cc3ccncc3)CC2)cn1	-5.64
CN(C)c1ncnc2c1CCN(C(=O)CN1CCCCC1)C2	-7.37
CC(C)CNS(=O)(=O)c1ccc(C(=O)N(C)CCc2cn[nH]c2)cc1	-8.39
CN(CC1(CO)CCC1)C(=O)c1cc(COc2ccccc2F)[nH]n1	-3.92
CN(C)C(C(=O)N1CCN(S(N)(=O)=O)CC1)c1ccccc1F (stereo not given)	-3.36
O=C1CCC2(CCNCC2)CN1CCCNc1cccnc1	-0.123
CCCn1cc(C(=O)NCCc2ccncc2)c(C)n1	-6.81
COc1c(F)cc(CN2CCCC3(CC2)CNC(=O)O3)cc1Cl (stereo not given)	5.1
OCC(CO)N1CCC(c2nnc(Cn3ccnc3)n2C2CC2)CC1	12.4
Cc1ccc(CN2CCN(c3ncnc4[nH]cnc34)CC2CCO)cc1 (stereo not given)	4.25
Cc1noc(C)c1CN1CCCC1c1nc(-c2ccccc2)no1 (stereo not given)	-2.38
Cc1ccc(C)c2c(O)cc(CNCC(N)=O)nc12	-0.585
c1cn(CC2CC2)c(C2CCN(CCC3CCOC3)CC2)n1 (stereo not given)	21.7
CN(C(=O)c1cccnc1)C1CCCN(CCc2ccccc2)C1 (stereo not given)	-5.02
CC(Oc1ccc2c(c1)OCO2)C(=O)N1CCC(N2CCOCC2)CC1 (stereo not given)	-2.72
Cc1ccccc1C(=O)NC[C@@H]1CCN(C(=O)c2cccn2C)C[C@H]1O	-13
CCn1ccc(C(=O)N2CCCN(Cc3ccccc3F)CC2)cc1=O	17.5
CCCn1ncc(C(=O)N(C)Cc2n[nH]c3c2CCC3)c1C	-11.7

SMILES	cytotoxicity at 70.5 h [%]
CCC[C@H]1CN(Cc2cncn2C)C[C@@H]1NC(=O)C1(COC)CCC1	-9.83
O=C(Cc1cccnc1)N1C[C@H]2CC[C@@H]1CN(Cc1ccc(F)cc1)C2	9.62
COc1ccccc1OC1CCN(Cc2cccnc2)CC1	-3.86
Cc1cc(C)c2c(C(=O)N(C)C)cc(-c3cnc(N)nc3)nc2c1	-5.25
CN(C)c1ccc(CN2C[C@H]3CC[C@@H]2CN(C2CCOCC2)C3)cn1	-3.42
c1ccc(Cn2cccn2)c(CN2CCCCC2CCn2ccnc2)c1 (stereo not given)	0.54
CC(C)(C)NC(=O)N1CCCn2nc(C(=O)Nc3ccccc3)cc2C1	-12.5
Cc1cc(C(=O)N2CC[C@@]3(O)CCN(C(=O)N4CCCC4)C[C@H]3C2)no1	-4
COc1cccc(-c2noc(-c3ccc(N4CC(N)C4)nc3)n2)c1OC	-0.582
CN(C)CC1(O)CCCN(C(=O)Cn2ccc3ccccc32)CC1 (stereo not given)	29.7
CCC(CO)N(C/C(C)=C/c1ccco1)Cc1ccco1 (stereo not given)	-3.88
CN(C)CC1(O)CCCN(C(=O)c2ccccc2-n2cccn2)C1 (stereo not given)	17.7
CCC(Nc1nccc(C2CCCC2)n1)c1ncccc1C (stereo not given)	14.1
CCn1cc(CN2CCC(CNC(C)=O)CC2)cc1C#N	0.676
CC(C)N1CC2(CCCN(c3ncc(Cl)cc3F)C2)CCC1=O (stereo not given)	-4.82
CC(=O)N[C@@H]1CN(Cc2cccs2)C[C@H]1c1ccc(C)o1	1.3
Cc1nc(CN2CCCC(CCc3ccccc3C(F)(F)F)C2)no1 (stereo not given)	-8.94
CN(C)c1nc(NCc2cccnc2N)ncc1F	0.515
CC(C)CN1CCn2nc(CNc3ncnc4[nH]ccc34)cc2C1	7.26
Cc1ccccc1C(C(=O)NCCn1cccc1)N(C)C (stereo not given)	-9.04
CC(C)N1CCCCC1CCn1cnc2cc(C(F)(F)F)ccc2c1=O (stereo not given)	-12.9
CCCN(Cc1ccc(OC)nc1)Cc1ccccc1OC	12.5
CN(C)C(=O)CCC1CCCN(Cc2ccc(-c3cccnc3)cc2)C1 (stereo not given)	-10.4
O=C(Nc1cccc2c1CCCC2)c1cccc(CN2CC[C@H](O)C2)c1	-4.36
OC1(CN2CCCC2)CCCN(Cc2c[nH]c(CC3CCCC3)n2)C1 (stereo not given)	-4.13
Cc1n[nH]c(C)c1CCC(=O)N(C)Cc1cn[nH]c1-c1ccc(F)cc1	5.04
CCC(C)CN1CCC(n2cc(C3CCCCC3)nn2)CC1 (stereo not given)	14.7

SMILES	cytotoxicity at 70.5 h [%]
FC(F)(F)c1ccc(-n2ccnc2-c2cc3n(n2)CCNC3)cn1	12.7
Cc1noc(CN(C)C(=O)c2n[nH]c(N)c2-c2ccccc2)n1	2.44
Cc1nccn1-c1ccc(N2CCC(NC(C)C(C)C)CC2)cc1 (stereo not given)	-2
Cc1cc(C(F)(F)F)cc(=O)n1CCCn1cnnn1	-11.2
CCc1ccc(CN(C/C=C/c2ccccc2)CCOC)nc1	-2.77
COC[C@H]1CCC[C@H]1Nc1ncnc2c1CCNCC2	-3.38
O=C(CSCC1CC1)N1CCCN(Cc2ccc(F)cc2)CC1	-11.1
CC(C)Cn1c(=O)n(CCn2cc(Cl)cn2)c2cc(C(=O)O)cnc21	-7.3
CCn1cnnc1CN(C)Cc1c[nH]nc1-c1ccc(F)cc1	-1.22
CC(C)Cc1nc(CO)n(-c2ccc3c(c2)OCCO3)n1	1.83
CC(NC(=O)c1cc2n(n1)CCCN(C(C)C)C2)c1cn2ccsc2n1 (stereo not given)	-16.5
CC(C)SCC(=O)NCc1cc2n(n1)CCCN(C1CCCCC1)C2	25.3
CN(CC(=O)N1CCOCC(CO)C1)Cc1ccccn1 (stereo not given)	-12.5
CCc1nc2c(c(NC3CC3)n1)CCN(C(=O)Cc1nonc1C)CC2	-8.76
Cn1ccnc1-c1ccc(NCCC2COc3ccccc3O2)nn1 (stereo not given)	-4.08
CSCC(=O)N1CCCC(CCC(=O)N(C)CCc2ccccn2)C1 (stereo not given)	9.62
CCc1nnc(CN(CC)C(=O)CCc2scnc2C)o1	-2.72
COc1ccc2c(c1)OCC(Cc1ccc(C)nc1N)C2 (stereo not given)	13.9
CN(Cc1ncc[nH]1)CC1CCOc2ccccc2C1 (stereo not given)	2.48
COc1ccc(F)c(CN2CCCC(O)(CNCc3ncc[nH]3)C2=O)c1 (stereo not given)	-5.99
c1ccc(COC2CCN(Cc3cc4n(n3)CCCNC4)CC2)nc1	-18
CCc1oc(C(=O)NCCc2nc(C(=O)O)cs2)cc1CN1CCCC1	-3.56
Cc1ccc(C#N)c(N2CC(C)(C)[C@@](C)(O)C2)n1	-6.73
COCCN(C)C[C@@H]1CN(C(=O)c2ccc(=O)n(C)c2)C[C@@H]1CO	-3.56
O=S(=O)(NCc1ccccc1)N(Cc1ccccn1)CC1CCCO1 (stereo not given)	-2.95
Cc1n[nH]c(C)c1CC(=O)N1CCCN(C)C2(CCN(C)CC2)C1	23.3
